According to the OPERA property sets (Mansouri et al. 2018):

Details: not given
`CSC` showed a boiling point of 37.3 °C, a log10 Henry constant (atm·m³/mol) of -2.79 and a log10 vapour pressure (mmHg) of 2.7. It also gave a melting point of -98.3 °C. Work on `Clc1ccc(Cl)c(-c2c(Cl)ccc(Cl)c2Cl)c1Cl` yielded a log10 Henry constant (atm·m³/mol) of -4.06 and a log10 Koc (L/kg) of 6.01. `CN(C)C=Nc1c(I)cc(I)c(CCC(=O)O)c1I` showed a melting point of 168 °C. Compound `Nc1cccc2c1Cc1ccccc1-2` has a melting point of 126 °C. In the case of `O=C(Nc1ccc(Br)cc1)c1c(O)cccc1O`, the melting point is reported as 229 °C. In the case of `O=C(O)Cc1ccc(O)c(O)c1`, the melting point is reported as 128 °C. With `CCCCCCCCCCCCCCCO` the log10 vapour pressure (mmHg) was -4.41, the melting point was 45.5 °C and the ready biodegradability was “readily biodegradable”. With `CCCCNS(=O)(=O)c1ccccc1` the boiling point was 314 °C and the ready biodegradability was “not readily biodegradable”. For `O=C(O)c1cccc(C(=O)O)n1`, the ready biodegradability was “readily biodegradable”. Compound `CCNCCNCC` has a boiling point of 146 °C. In the case of `FC(C(F)(F)F)C(F)(F)F`, the boiling point is reported as -17.3 °C, the log10 vapour pressure (mmHg) is reported as 3.53 and the melting point is reported as -127 °C. `CCCCCCCS` showed a boiling point of 177 °C, a log10 vapour pressure (mmHg) of 0.116 and a melting point of -43 °C. `C=C[Si](C)(C)Cl` showed a boiling point of 83.5 °C. With `Clc1ccc2c(Cl)ccc(Cl)c2c1` the log10 Koa was 7.27. In the case of `C[N+]1(C)CCCCC1.[Cl-]`, the melting point is reported as 223 °C. `Cc1cc(NS(=O)(=O)c2ccc(N)cc2)n(-c2ccccc2)n1` showed a melting point of 195 °C. Work on `Fc1cc2c(cc1F)Oc1cc(Cl)c(Cl)cc1O2` yielded a log10 vapour pressure (mmHg) of -7.76 and a melting point of 223 °C. In the case of `N#CC(=NO)c1ccccc1`, the melting point is reported as 129 °C. Work on `CC(=O)NC(N)=S` yielded a melting point of 165 °C. Compound `COC(C)CO` (centres undefined) has a boiling point of 130 °C. In the case of `Fc1c(F)c(F)c(C(F)(F)F)c(F)c1F`, the boiling point is reported as 104 °C, the log10 vapour pressure (mmHg) is reported as 1.46 and the melting point is reported as -65.6 °C. For `CC=Cc1ccc(OC)c(OC)c1`, the boiling point was 270 °C and the melting point was 18 °C. With `Oc1ccc(Cc2ccccc2)cc1` the boiling point was 322 °C, the melting point was 84 °C and the ready biodegradability was “not readily biodegradable”. `C1CCOC1` showed a boiling point of 65 °C, a log10 Henry constant (atm·m³/mol) of -4.15 and a log10 Koa of 2.86. For the same compound, the log10 vapour pressure (mmHg) was 2.21, the melting point was -108 °C and the ready biodegradability was “readily biodegradable”. In the case of `C[Si](C)(C)O[Si](C)(C)O[Si](C)(C)O[Si](C)(C)C`, the boiling point is reported as 194 °C, the log10 Henry constant (atm·m³/mol) is reported as 1.23 and the log10 vapour pressure (mmHg) is reported as -0.426. It also gave a melting point of -76 °C. With `NC=O` the boiling point was 220 °C, the log10 vapour pressure (mmHg) was -1.21 and the melting point was 2.55 °C. For the same compound, the ready biodegradability was “readily biodegradable”. For `CCOC(=O)C1CC=CCC1` (centres undefined), the boiling point was 194 °C. Work on `CC(=O)Nc1ccc(S(=O)(=O)Cl)cc1` yielded a melting point of 149 °C. `CCOC(=O)CCCCCC(=O)O` gave a melting point of 10 °C. For `CCOP(=S)(OCC)SCSCC`, the log10 Koc (L/kg) was 2.7 and the log10 vapour pressure (mmHg) was -3.2. `CN=C(O)Sc1ccc(OS(C)(=O)=O)cc1` gave a melting point of 137 °C. In the case of `BrC=Cc1ccccc1`, the melting point is reported as 7 °C and the ready biodegradability is reported as “not readily biodegradable”. Compound `CC1CS1` (centres undefined) has a boiling point of 72.5 °C and a melting point of -91 °C. In the case of `Fc1cccc2ccccc12`, the boiling point is reported as 215 °C and the melting point is reported as -9 °C. `CC(O)CCO` (centres undefined) gave a boiling point of 208 °C and a log10 vapour pressure (mmHg) of -1.7. In the case of `CC(C)OC(=O)C(O)(c1ccc(Cl)cc1)c1ccc(Cl)cc1`, the log10 vapour pressure (mmHg) is reported as -6.74 and the melting point is reported as 73 °C. With `COc1cc(OC)nc(Sc2cccc(Cl)c2C(=O)[O][Na])n1` the log10 Koc (L/kg) was 1.15. Compound `O=C1CCCCCCCN1` has a melting point of 78 °C. `Ic1ccc(I)c(I)c1I` showed a melting point of 136 °C. With `CCN1C[C@]2(COC)[C@H](O)C[C@H](OC)[C@]34C1[C@H]([C@H](OC)[C@H]23)[C@]1(OC(C)=O)[C@H]2[C@@H](OC(=O)c3ccccc3)[C@](O)(C[C@H]24)[C@@H](OC)[C@@H]1O` the melting point was 204 °C. `COCC(O)COC` showed a boiling point of 169 °C. With `Oc1c2ccccc2cc2ccccc12` the melting point was 152 °C. For `NNC(N)=S`, the melting point was 183 °C and the ready biodegradability was “not readily biodegradable”. For `COC(=O)C1(S(=O)(=O)c2ccccc2)CCCCC1`, the melting point was 114 °C. Work on `CC(C)=CCC1=C(O)C(C(=O)CC(C)C)=C(O)C(CC=C(C)C)(CC=C(C)C)C1=O` yielded a melting point of 93 °C. For `O=C1C=CCCC1`, the boiling point was 170 °C and the melting point was -53 °C. In the case of `Cc1ccc(C(=O)c2ccccc2C(=O)O)cc1`, the melting point is reported as 146 °C. With `C/C=C/Cl` the boiling point was 35.2 °C, the log10 vapour pressure (mmHg) was 2.71 and the melting point was -117 °C. Compound `O=[N+]([O-])c1ccc(Sc2ccc([N+](=O)[O-])cc2)cc1` has a melting point of 160 °C. With `CC(=O)CC(=O)C(=O)O` the melting point was 99.5 °C. In the case of `O=C(O)c1cc(O)c(O)c(O)c1`, the ready biodegradability is reported as “readily biodegradable”. With `OCC1CO1` (centres undefined) the ready biodegradability was “readily biodegradable”. With `CCCCCCCCCCCCSP(SCCCCCCCCCCCC)SCCCCCCCCCCCC` the ready biodegradability was “not readily biodegradable”. With `O=C(c1ccccc1)c1ccc([N+](=O)[O-])cc1` the melting point was 138 °C. `CCC(C)Cc1ccccc1` (centres undefined) showed a boiling point of 195 °C. With `O=c1cccccc1O` the melting point was 50.8 °C. In the case of `OC[C@@H](O)[C@H](O)[C@@H](O)CO`, the melting point is reported as 98.8 °C and the ready biodegradability is reported as “readily biodegradable”. In the case of `COc1ccc(/C=C/NC=O)cc1`, the melting point is reported as 132 °C. `CC(C)NC(=O)N1CC(=O)N(c2cc(Cl)cc(Cl)c2)C1=O` gave a log10 Henry constant (atm·m³/mol) of -8.51, a log10 Koc (L/kg) of 2.85 and a log10 vapour pressure (mmHg) of -8.43. It also gave a melting point of 136 °C. With `CCN(CC)CCOC(=O)c1ccc(N)cc1.Cl` the melting point was 156 °C. Compound `NS(=O)(=O)c1ccc(SCCCCO)s1` has a melting point of 48.5 °C. Work on `O=COCc1ccccc1` yielded a boiling point of 203 °C.

Same assay, conditions: fish
`CNC(=O)Oc1cc(C)cc(C)c1` gave a log10 BCF of 0.4. `Clc1cc2c(oc3c(Cl)c(Cl)ccc32)c(Cl)c1Cl` showed a log10 biotransformation half-life (days) of 0.9. `O=NN(c1ccccc1)c1ccccc1` gave a log10 BCF of 1.33 and a log10 biotransformation half-life (days) of -0.91. In the case of `Cc1cccc(C)c1C`, the log10 BCF is reported as 2.29 and the log10 biotransformation half-life (days) is reported as -0.22. Compound `C=CCCl` has a log10 BCF of 0.7 and a log10 biotransformation half-life (days) of -0.93. `Cc1c2ccccc2cc2c1ccc1ccccc12` gave a log10 biotransformation half-life (days) of -0.05. In the case of `COP1(=S)OCc2ccccc2O1` (centres undefined), the log10 BCF is reported as 1.31 and the log10 biotransformation half-life (days) is reported as -1.15. `Clc1ccc(Cl)c(-c2c(Cl)ccc(Cl)c2Cl)c1Cl` gave a log10 biotransformation half-life (days) of 2.34. `Oc1ccc(Cc2ccccc2)cc1` gave a log10 BCF of 1.33 and a log10 biotransformation half-life (days) of -0.86. With `CC(C)NC(=O)N1CC(=O)N(c2cc(Cl)cc(Cl)c2)C1=O` the log10 BCF was 2.53.
